# According to the supplement of paper PMC10307832:
# Tests used:
# Test in all cases: relative viability (nuclei count vs DMSO), 5 days (fraction); higher = more cells survive
# Pazopanib + Palbociclib = compound: Cc1ccc(Nc2nccc(N(C)c3ccc4c(C)n(C)nc4c3)n2)cc1S(N)(=O)=O [Pazopanib] + CC(=O)c1c(C)c2cnc(Nc3ccc(N4CCNCC4)cn3)nc2n(C2CCCC2)c1=O [Palbociclib] (partner 0.5 µM)
# Method in brief: (§1)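 One day after seeding in 1536-well plates, lung cancer cell lines were dosed by pin tool. Dosing was either single-drug or a fixed anchor-drug dose plus five library-drug doses (not always all listed) in √10 steps. After 5 days, nuclei were stained in one fix-and-stain step and counted on 4× images, and relative viability is the nuclei count of treated wells over that of vehicle wells, given as the median of duplicate plates.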
# Ponatinib + Palbociclib = compound: Cc1ccc(C(=O)Nc2ccc(CN3CCN(C)CC3)c(C(F)(F)F)c2)cc1C#Cc1cnc2cccnn12 [Ponatinib] + CC(=O)c1c(C)c2cnc(Nc3ccc(N4CCNCC4)cn3)nc2n(C2CCCC2)c1=O [Palbociclib] (partner 0.5 µM)
# Method in brief: as §1
# Ponatinib + AZD7762 = compound: Cc1ccc(C(=O)Nc2ccc(CN3CCN(C)CC3)c(C(F)(F)F)c2)cc1C#Cc1cnc2cccnn12 [Ponatinib] + NC(=O)Nc1cc(-c2cccc(F)c2)sc1C(=O)N[C@H]1CCCNC1 [AZD7762] (partner 0.2 µM)
# Method in brief: as §1
# Ponatinib + Luminespib = compound: Cc1ccc(C(=O)Nc2ccc(CN3CCN(C)CC3)c(C(F)(F)F)c2)cc1C#Cc1cnc2cccnn12 [Ponatinib] + CCNC(=O)c1noc(-c2cc(C(C)C)c(O)cc2O)c1-c1ccc(CN2CCOCC2)cc1 [Luminespib] (partner 0.01 µM)
# Method in brief: as §1
Cell Line,relative viability (Pazopanib + Palbociclib; first compound 0.01 µM),relative viability (Pazopanib + Palbociclib; first compound 0.03162 µM),relative viability (Pazopanib + Palbociclib; first compound 0.1 µM),relative viability (Pazopanib + Palbociclib; first compound 0.3162 µM),relative viability (Pazopanib + Palbociclib; first compound 1 µM),relative viability (Ponatinib + Palbociclib; first compound 0.002 µM),relative viability (Ponatinib + Palbociclib; first compound 0.006325 µM),relative viability (Ponatinib + Palbociclib; first compound 0.06325 µM),relative viability (Ponatinib + Palbociclib; first compound 0.2 µM),relative viability (Ponatinib + AZD7762; first compound 0.002 µM),relative viability (Ponatinib + AZD7762; first compound 0.006325 µM),relative viability (Ponatinib + AZD7762; first compound 0.06325 µM),relative viability (Ponatinib + AZD7762; first compound 0.2 µM),relative viability (Ponatinib + Luminespib; first compound 0.006325 µM),relative viability (Ponatinib + Luminespib; first compound 0.06325 µM),relative viability (Ponatinib + Luminespib; first compound 0.2 µM),relative viability (Ponatinib + Luminespib; first compound 0.002 µM)
LK-2,0.615,0.803,0.69,0.709,0.729,0.643,0.744,0.768,0.757,0.405,0.431,0.146,0.231,0.185,0.181,0.158,
NCI-H1437,0.327,0.313,0.284,0.338,0.313,0.285,0.318,0.316,0.332,1.02,1.07,1.17,1.03,1.09,1.25,1.09,1.18
COR-L23,0.297,0.323,0.353,0.316,0.317,0.271,0.287,0.272,0.229,,,,,0.618,0.669,0.513,0.658
ABC-1,0.407,0.799,0.788,1.13,0.784,0.571,0.693,0.877,0.646,0.828,0.878,0.755,0.663,0.42,0.745,0.239,0.558
NCI-H522,0.973,0.97,1.05,0.887,0.883,1.05,0.982,1.18,0.814,0.664,0.784,0.695,0.819,1.3,1.18,1.09,1.17
PC-14,0.561,0.585,0.568,0.719,0.6,0.464,0.533,0.73,0.584,0.218,0.305,0.396,0.458,0.147,0.195,0.138,0.127
SW 900,0.463,0.636,,0.65,0.595,0.484,0.485,0.569,0.516,0.569,0.46,0.606,0.537,0.19,0.243,0.204,0.179
NCI-H1703,,,,,,,,,,0.118,0.143,0.118,0.143,,,,
SW 1573,0.468,0.349,0.454,0.367,0.365,0.411,0.402,0.341,0.401,,,,,0.321,0.25,0.259,0.266
COR-L 105,0.364,0.363,0.413,0.437,0.438,0.351,0.4,0.404,0.447,,,,,0.931,0.845,0.895,0.651
SK-LU-1,0.393,0.389,0.411,0.425,0.455,0.378,0.415,0.342,0.353,,,,,0.213,0.2,0.175,0.196
HCC-366,0.36,0.422,0.449,0.386,0.353,0.339,0.361,0.423,0.361,0.247,0.271,0.146,0.119,,,,
SK-MES-1,0.334,0.352,0.322,0.36,0.304,0.36,0.379,0.405,0.327,,,,,0.89,1.01,0.745,0.761
NCI-H1648,,,0.229,0.281,0.279,0.266,0.245,0.246,0.252,0.627,0.64,0.618,0.567,,,,
NCI-H2228,0.892,0.75,0.848,0.756,0.779,0.587,0.647,0.728,0.593,,,,,0.178,0.109,0.129,0.134
NCI-H520,0.185,0.23,0.244,0.224,0.188,0.215,0.207,0.172,0.16,,,,,0.209,0.19,0.223,0.207
NCI-H661,0.376,0.386,0.427,0.422,0.396,0.412,0.412,0.434,0.416,,,,,0.903,0.898,0.927,0.916
NCI-H596,,,,,,,,,,1.08,1.04,0.912,0.632,1.07,1.01,0.686,1.06
NCI-H2023,0.36,0.412,0.456,0.38,0.434,0.447,0.456,0.402,0.438,,,,,0.749,0.748,0.543,0.749
NCI-H2009,0.222,0.218,0.185,0.271,0.258,0.161,0.225,0.238,0.202,,,,,0.967,1.02,0.918,0.975
